{"source": "patent US8987474B2", "about": "(University of South Florida, priority 2006, dated 2015)", "molecular_target": "Shp2 (Homo sapiens (Human), UniProt Q06124)", "sequence (Q06124 205-593)": "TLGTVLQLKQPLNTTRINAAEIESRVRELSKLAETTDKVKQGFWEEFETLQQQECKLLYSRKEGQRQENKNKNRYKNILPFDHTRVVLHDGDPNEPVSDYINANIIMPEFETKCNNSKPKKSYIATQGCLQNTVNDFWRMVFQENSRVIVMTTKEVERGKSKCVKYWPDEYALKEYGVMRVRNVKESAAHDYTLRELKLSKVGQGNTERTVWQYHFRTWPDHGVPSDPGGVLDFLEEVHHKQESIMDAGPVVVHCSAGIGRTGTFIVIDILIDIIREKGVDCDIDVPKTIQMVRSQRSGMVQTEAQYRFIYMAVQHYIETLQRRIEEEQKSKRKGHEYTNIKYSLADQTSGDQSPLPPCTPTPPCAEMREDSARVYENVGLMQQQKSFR", "test": "PTP activity assay (DiFMUP substrate) with GST-Shp2", "type": "biochemical", "conditions": "for IC50: Table II, Shp2", "excerpt": "All constructs were verified by DNA sequencing.\nRecombinant DEP1 was from Abcam.", "note": "Where “and” joins values, the source holds several entries; their conditions need not be identical. Equal values may be shown once.", "data": [{"smiles": "CCNC(=O)c1cccc(N/N=C2\\C(=O)Nc3ccc(S(=O)(=O)NC(C)C)cc32)c1", "note": "[RPM331, N-Ethyl-3-[N′-(5-isopropylsulfamoyl-2-oxo-1,2-dihydro-indol-3-ylidene)hydrazino]benzamide]", "values": [{"measurement": "% PTP activity", "setting": "at 20 μM", "result": "45 + 2% 92) at 20 μM"}]}, {"smiles": "CCN(CC)C(=O)c1ccc2c(c1)/C(=N/Nc1ccccc1[N+](=O)[O-])C(=O)N2", "note": "[HL2-070-3]", "values": [{"measurement": "% PTP activity", "setting": "at 20 μM", "result": "14 ± 2% (2) at 20 μM"}]}, {"smiles": "COC(=O)c1ccc2[nH]cc(C(=O)c3ccccc3)c2c1", "note": "[RPM341, 3-Benzoyl-1H-indole-5-carboxylic acid methyl ester]", "values": [{"measurement": "% PTP activity", "setting": "at 20 μM", "result": "42 ± 10% (2) at 20 μM"}]}, {"smiles": "CC(C)NS(=O)(=O)c1ccc2c(c1)/C(=C/Nc1ccccc1C(=O)O)C(=O)N2", "note": "[RPM336, 2-[(5-Isopropylsulfamoyl-2-oxo-1,2-dihydro-indol-3-ylidenemethyl)amino]benzoic acid]", "values": [{"measurement": "IC50", "result": "33 to 100", "unit": "µM"}, {"measurement": "% PTP activity", "setting": "at 20 μM", "result": "48 ± 7% (2) at 20 μM"}]}, {"smiles": "COC(=O)c1ccc2cc(C(=O)Nc3ccc(S(N)(=O)=O)cc3)ccc2c1", "note": "[RPM187]", "values": [{"measurement": "% PTP activity", "setting": "at 20 μM", "result": "66 ± 4% (3) at 20 uM"}]}, {"smiles": "CC(C)NS(=O)(=O)c1ccc2c(c1)/C(=N/Nc1ccccc1)C(=O)N2", "note": "[RPM275, 3-(Phenylhydrazono)-2-oxo-2,3-dihydro-1H-indole-5-sulfonic acid isopropylamide]", "values": [{"measurement": "% PTP activity", "setting": "at 20 μM", "result": "58.53% (1) at 20 μM"}]}, {"smiles": "O=C1Nc2ccc(S(=O)(=O)O)cc2/C1=N/Nc1nc2ccccc2s1", "note": "[HL1-058-3]", "values": [{"measurement": "IC50", "result": "33 to 100", "unit": "µM"}, {"measurement": "% PTP activity", "setting": "concentration not given", "result": "46 ± 4% (3)"}]}, {"smiles": "CCc1ccccc1N/N=C1\\C(=O)Nc2ccc(S(=O)(=O)O)cc21", "note": "[RPM219, 2-Oxo-3-[(2-ethylphenylhydrazono)]-2,3-dihydro-1H-indole-5-sulfonic acid]", "values": [{"measurement": "IC50", "result": "33 to 100", "unit": "µM"}, {"measurement": "% PTP activity", "setting": "at 20 μM", "result": "89 ± 2% (3) at 20 μM"}]}, {"smiles": "CC(C)NS(=O)(=O)c1ccc2c(c1)/C(=C/Nc1ccc(C(=O)O)cc1)C(=O)N2", "note": "[RPM305, 4-[(5-Isopropylsulfamoyl-2-oxo-1,2-dihydro-indol-3-ylidenemethyl)amino]benzoic acid]", "values": [{"measurement": "IC50", "result": "33 to 100", "unit": "µM"}, {"measurement": "% PTP activity", "setting": "at 20 μM", "result": "56.77% (1) at 20 μM"}]}, {"smiles": "CNC(=O)c1cccc(N/N=C2\\C(=O)Nc3ccc(S(=O)(=O)NC(C)C)cc32)c1", "note": "[RPM330, 3-[N′-(5-Isopropylsulfamoyl-2-oxo-1,2-dihydro-indol-3-ylidene)hydrazino]-N-methylbenzamide]", "values": [{"measurement": "% PTP activity", "setting": "at 20 μM", "result": "47 ± 1% (2) at 20 μM"}]}, {"smiles": "O=C1Nc2ccc(C(=O)O)cc2/C1=N/Nc1ccccc1[N+](=O)[O-]", "note": "[HL2-054]", "values": [{"measurement": "% PTP activity", "setting": "at 20 μM", "result": "60.57% (1) at 20 μM"}]}, {"smiles": "O=C1Nc2ccc(S(=O)(=O)NCc3ccco3)cc2/C1=N/Nc1ccccc1Cl", "note": "[HL2-016-11]", "values": [{"measurement": "% PTP activity", "setting": "concentration not given", "result": "55 ± 7% (6)"}]}, {"smiles": "O=C1Nc2ccc(S(=O)(=O)NCc3ccc(Cl)cc3)cc2/C1=N/Nc1ccccc1C(=O)O", "note": "[RPM191, 2-[N′-[5-(4-Chloro-benzylsulfamoyl)-2-oxo-1,2-dihydro-indol-3-ylidene]hydrazino}benzoic acid]", "values": [{"measurement": "IC50", "result": "33 to 100", "unit": "µM"}, {"measurement": "% PTP activity", "setting": "at 20 μM", "result": "65.07% and 53.99%"}]}, {"smiles": "O=C1Nc2ccc(S(=O)(=O)O)cc2/C1=N/Nc1cccc2ccccc12", "note": "[RPM223, 3-(Naphthalen-1-ylhydrazono)-2-oxo-2,3-dihydro-1H-indole-5-sulfonic acid]", "values": [{"measurement": "IC50", "result": "33 to 100", "unit": "µM"}, {"measurement": "% PTP activity", "setting": "at 20 μM", "result": "76 + 12% at 20 μM"}]}, {"smiles": "O=C1Nc2ccc(S(=O)(=O)NCc3cccs3)cc2/C1=N/Nc1ccccc1[N+](=O)[O-]", "note": "[RPM140, 3-[(2-Nitrophenyl)hydrazono]-2-oxo-2,3-dihydro-1H-indole-5-sulfonic acid (thiophen-2-ylmethyl)amide]", "values": [{"measurement": "% PTP activity", "setting": "concentration not given", "result": "37 ± 4% (6)"}]}, {"smiles": "CCOC(=O)c1ccc(N/C=C2\\C(=O)Nc3ccc(S(=O)(=O)NC(C)C)cc32)cc1", "note": "[RPM288, 4-[(5-Isopropylsulfamoyl-2-oxo-1,2-dihydro-indol-3-ylidenemethyl)amino]benzoic acid ethyl ester]", "values": [{"measurement": "% PTP activity", "setting": "at 20 μM", "result": "30 ± 2% (2) at 20 μM"}]}, {"smiles": "O=C1Nc2ccc(S(=O)(=O)NCc3cccnc3)cc2/C1=N/Nc1ccccc1[N+](=O)[O-]", "note": "[HL2-016-20]", "values": [{"measurement": "% PTP activity", "setting": "concentration not given", "result": "68 ± 8% (6)"}]}]}
